What is called IC50 is the point on the concentration scale where inhibition reaches its midpoint.

Here are results for one compound from patent US20260256772A1, “BENZOTHIAZOLE COMPOUND AND USE THEREOF” (NANJING REJU THERAPEUTICS, INC., priority 2022, published 2026).

For series [1] the following is noted: cited from earlier work.
Series [2] can be described thus: Solubility test in pure water. The class given is physicochemical. Here is the method: The following test protocol was used for the solubility tests of the compounds of the present invention:
1). The compounds to be tested were precisely weighed respectively, and formulated to a corresponding concentration (l mg/mL or 10 mg/mL) by adding a corresponding volume of pure water vortically shook for 1 minute every 3 minutes for 15 minutes to observe the dissolution, and then the dissolution was observed again after standing for 1 hour. 2). 0.2 mL of 1 mg/mL compound or sodium salt thereof was took, diluted to 0.1 mg/mL respectively by adding 1.8 mL water, vortically shook for 5 minutes to observe the dissolution, and then the dissolution was observed again after standing for 1 hour. 3). 1 mL of 1 mg/mL compound or sodium salt thereof was took, diluted to 0.5 mg/mL by adding 1 mL water, vortically shook for 5 minutes to observe the dissolution, and then the dissolution was observed again after standing for 1 hour.

Series [3] concerns platelets. The note with it: under in vivo conditions; cited from earlier work.
For series [4] the following is noted: rats; cited from earlier work.
The test system of series [5] is platelets. Kind of series: Platelet toxicity test in mice (platelet count). The series is classed as in vivo. Particulars: mice, 0.5 mg/kg single intraperitoneal injection, blood at 6 hours, FIG. 1. Here is the method:
In this test example, C57 mice were chosen to detect the effect of the target compounds on platelets.
7 to 8 weeks old […] mice were randomly divided into vehicle group and compound group. The test compound (0.5 mg/kg) or blank vehicle was administrated via single intraperitoneal injection. Blood was collected from the retroorbital venous plexus of the mice at 6 hours, and placed in a blood routine tube containing anticoagulant EDTA-K2. After shaking gently, the blood physiological indicators were measured using a hematology analyzer, with the platelet count as the target parameter for this platelet toxicity test.

The next series has as its system senescent cells. Briefly: Senescent cell killing, CellTiter-Glo cell viability. The class given is cell-based, human, mouse. Particulars: activity of killing senescent cells; cell type not specified. The text has this:
In this test example, human non-small cell lung cancer cell line (A549 cells), human embryonic lung fibroblast cell line (IMR90 cells), human retinal pigment epithelial cells (RPE cells), mouse chondrocytes, and mouse skin fibroblasts were selected. The above cells were induced by etoposide ([…]) to obtain their senescent cells. The effect of the target compounds on the viability of normal and senescent cells above was examined, thus assessing the specific killing effect of the compounds on senescent cells above.
Briefly, senescent and normal cells above were selected and plated separately (96-well plates). […] 2A to 2E.

As for `Cc1c(-c2ccc(N3CCc4cccc(C(=O)Nc5nc6ccccc6s5)c4C3)nc2C(=O)O)cnn1CC12CC3CC(CC(C3)C1)C2` [Compound A-1331852], in series [1], the solubility in water entry is “low solubility in water”. The During shaking entry in series [2] (formulated concentration 0.10 mg/mL in pure water) and in series [2] (formulated concentration 1 mg/mL in pure water) was “Visible solute particles” throughout. Besides, in the series with platelets [3], the platelet toxicity result is “significant platelet toxicity”. In series [4], the oral bioavailability entry was “about 11%”. Further, the “platelet toxicity (platelet count)” value in the series on platelets [5] is “severe platelet toxicity”. Besides, the IC50 in the series with senescent cells lay within 0.2 to 1 µM.
